According to article PMC8446577, “Novel cold-adapted raw-starch digesting α-amylases from Eisenia fetida: Gene cloning, expression, and characterization” (Biotechnology Reports, 2021):

Target: T1, rEf-Amy I (Eisenia fetida, UniProt A0A173N065)
T1 construct: gene alpha-amylase; mature enzyme without signal peptide, secreted from Pichia pastoris GS115 (pPICZalphaA, codon-optimised gene), HisTrap purified, 57 kDa by SDS-PAGE; precursor 510 residues; borders from printed domain limits E18-V510
T1 sequence (A0A173N065 18-510): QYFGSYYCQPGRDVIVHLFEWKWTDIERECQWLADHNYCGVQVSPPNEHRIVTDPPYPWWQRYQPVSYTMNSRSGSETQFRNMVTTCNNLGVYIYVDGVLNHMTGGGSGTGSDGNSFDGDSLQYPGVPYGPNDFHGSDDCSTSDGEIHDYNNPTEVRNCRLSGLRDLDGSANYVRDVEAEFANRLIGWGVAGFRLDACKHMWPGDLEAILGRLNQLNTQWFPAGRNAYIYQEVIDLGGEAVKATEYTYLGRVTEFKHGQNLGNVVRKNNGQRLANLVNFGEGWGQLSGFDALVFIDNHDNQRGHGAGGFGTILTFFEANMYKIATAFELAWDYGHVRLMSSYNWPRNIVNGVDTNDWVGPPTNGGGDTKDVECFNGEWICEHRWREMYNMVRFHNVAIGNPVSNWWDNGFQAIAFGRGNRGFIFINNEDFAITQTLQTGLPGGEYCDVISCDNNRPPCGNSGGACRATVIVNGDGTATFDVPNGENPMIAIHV
Assay: HPLC (RI detection) of hydrolysis products
Assay type: biochemical
Details: 5 mM substrate, 50 mM sodium acetate pH 5.5, 37 °C

Row | SMILES | HPLC (RI detection) of hydrolysis products
1 | OC[C@H]1O[C@H](O[C@H]2[C@H](O)[C@@H](O)[C@@H](O[C@H]3[C@H](O)[C@@H](O)[C@@H](O[C@H]4[C@H](O)[C@@H](O)C(O)O[C@@H]4CO)O[C@@H]3CO)O[C@@H]2CO)[C@H](O)[C@@H](O)[C@@H]1O (some centres unmarked) [maltotetraose] | from Mal4 was Mal (Fig. 5B)
2 | OC[C@H]1O[C@H](O[C@H]2[C@H](O)[C@@H](O)[C@@H](O[C@H]3[C@H](O)[C@@H](O)[C@@H](O[C@H]4[C@H](O)[C@@H](O)[C@@H](O[C@H]5[C@H](O)[C@@H](O)C(O)O[C@@H]5CO)O[C@@H]4CO)O[C@@H]3CO)O[C@@H]2CO)[C@H](O)[C@@H](O)[C@@H]1O (some centres unmarked) [maltopentaose] | In the case of Ef-Amy I, the major hydrolysis products from Mal5 were Mal and Mal3
